# Measured values as given in publication PMC2009384, “The carcinogenicity of polycyclic hydrocarbon epoxides in newborn mice” (British Journal of Cancer, 1975).
# System: newborn Swiss mice
# Experiment: Experiment I: carcinogenicity in newborn mice, benz(a)anthracene vs its K region epoxide (s.c. injection, tumour incidence to 70-75 weeks)
# Excerpt: Br. J. Cancer (1975) 31, 182 THE CARCINOGENICITY OF POLYCYCLIC HYDROCARBON EPOXIDES IN NEWBORN MICE P. L. GROVER, P. SIMS, B. C. V. MITCHLEY AND F. J. C. ROE From the Chester Beatty Research Institute, Institute of Cancer Research, Royal Cancer Hospital, Fulham Road, London, SW3 6JB Received 9 August 1974. […] THE HYPOTHESIS that the carcino- genicity of polycyclic hydrocarbons is associated with the formation of epoxide metabolites (Grover, Hewer and Sims, 1971, 1972; Keysell et al., 1973) is sup- ported by some experimental evidence but remains unproven. […] The epoxides can also act as alkylating agents (Grover and Sims, 1970) and as mutagens (Ames, Sims and Grover, 1972; Huberman et al., 1971; Cookson, Sims and Grover, 1971; Fahmy and Fahmy, 1973). […] The newborn mouse, which is susceptible to carcinogenic polycyclic hydrocarbons (Roe, Rowson and Salaman, 1961; Roe, Mitchley and Walters, 1963; Walters and Roe, 1964, 1966) can be considered as a convenient source of several types of rapidly dividing cells. Consequently we have tested the K region epoxides derived from phenanthrene, benz(a)anthracene, 7-methylbenz(a)anthracene, dibenz(a,h)- anthracene, chrysene and 3-methylchol- anthrene, together with some of the CARCINOGENICITY OF POLYCYCLIC HYDROCARBON EPOXIDES IN MICE 183 parent hydrocarbons, for carcinogenicity using newborn mice. This paper presents the results that were obtained in these experiments. MATERIALS AND METHODS The polycyclic hydrocarbon epoxides, phenanthrene 9,10-oxide, benz(a)anthracene 5,6-oxide, 7-methylbenz(a)anthracene 5,6- oxide, dibenz(a,h)anthracene 5,6-oxide, chry- sene 5,6-oxide and 3-methylcholanthrene 11,12-oxide were prepared from the parent hydrocarbons (Newman and Blum, 1964; Boyland and Sims, 1965; Sims 1966). Two experiments were undertaken fol- lowing similar protocols. For each experi- ment Swiss mice from a specific pathogen- free colony were time mated so as to produce a large number of litters over the course of 2 or 3 days. […] Test compounds were suspended in poly- ethylene glycol (PEG) 400 and injections of 0-02 ml of the suspension were given by introducing a 25 gauge hypodermic needle through the skin near the root of the tail and threading it subcutaneously to deliver the injected material in the interscapular region. Injections were given to every mouse on the first day or first 3 days of life. The details of treatments and numbers of mice of each sex in each group are shown in Table I (Experiment I) and Table II (Ex- periment II). Surviving mice were weaned when they w ere 21 days old. Thereafter, males and females w ere separated and housed 6 per cage in metal boxes. A mixture of sawdust and wood shavings was used as bedding. The mice were fed on a standard cubed diet (Formulation 86 from C. Holdman and Sons (Plow co Feeds), Byers Lane, South Godstone, Surrey) and water was given ad libitum. Mice were inspected daily, and at weekly intervals they were weighed and palpated for tumours and other lesions. […] The experiment was terminated when surviving mice were between 70 and 75 weeks old. A full routine post- mortem examination, which included disten- sion of the urinary bladder with fixative, was carried out. The number of lesions thought to be neoplasms and the size of the largest such lesion in each organ affected were recorded. All tissues with suspected neoplasms were fixed in Bouin's solution. Haematoxylin and eosin stained 5 µm paraffin wax sections were prepared and examined microscopically. RESULTS The results of the two experiments in terms of tumour incidence are sum- marized in […].
# [1] = females, 50 µg per treatment s.c. on Days 0, 1 and 2
# [2] = females, 50 µg per treatment s.c. on Days 0, 1 and 2 in PEG 400
# [3] = females, 100 µg per treatment s.c. on Days 0, 1 and 2
# [4] = females, 100 µg per treatment s.c. on Days 0, 1 and 2 in PEG 400
# [5] = females, 200 µg per treatment s.c. on Days 0, 1 and 2
# [6] = females, 200 µg per treatment s.c. on Days 0, 1 and 2 in PEG 400
# [7] = males, 50 µg per treatment s.c. on Days 0, 1 and 2
# [8] = males, 50 µg per treatment s.c. on Days 0, 1 and 2 in PEG 400
# [9] = males, 100 µg per treatment s.c. on Days 0, 1 and 2
# [10] = males, 100 µg per treatment s.c. on Days 0, 1 and 2 in PEG 400
# [11] = males, 200 µg per treatment s.c. on Days 0, 1 and 2
# [12] = males, 200 µg per treatment s.c. on Days 0, 1 and 2 in PEG 400
structure (smiles),measurement,setting,value
"c1ccc2c(c1)-c1cc3ccccc3cc1[C@H]1O[C@@H]21 [Benz(a)anthracene 5,6-oxide, benz(a)anthracene 5,6-oxide]",incidence of liver tumours in males,"2 higher levels (Groups D and E, 3 x 200 and 3 x 100 µg)",increase in incidence
same,No. of mice examined at p.m. at termination of experiment (70th-75th week) with liver tumours,[1],0
same,No. of mice examined at p.m. at termination of experiment (70th-75th week) with lung tumours,[1],2
same,No. of mice examined at p.m. at termination of experiment (70th-75th week) with multiple liver tumours,[1],0
same,No. of mice examined at p.m. at termination of experiment (70th-75th week) with multiple lung tumours,[1],0
same,No. of mice examined at p.m. at termination of experiment (70th-75th week) with other tumours,[1],2
same,No. of mice examined at p.m. from 50th-70th week with liver tumours,[1],0
same,No. of mice examined at p.m. from 50th-70th week with lung tumours,[1],0
same,No. of mice examined at p.m. from 50th-70th week with other tumours,[1],1
same,No. of survivors at 50 weeks,[2],18
same,No. of survivors at 70 weeks,[2],16
same,No. of mice examined at p.m. at termination of experiment (70th-75th week) with liver tumours,[3],0
same,No. of mice examined at p.m. at termination of experiment (70th-75th week) with lung tumours,[3],6
same,No. of mice examined at p.m. at termination of experiment (70th-75th week) with multiple liver tumours,[3],0
same,No. of mice examined at p.m. at termination of experiment (70th-75th week) with multiple lung tumours,[3],5
same,No. of mice examined at p.m. at termination of experiment (70th-75th week) with other tumours,[3],1
same,No. of mice examined at p.m. from 50th-70th week with liver tumours,[3],0
same,No. of mice examined at p.m. from 50th-70th week with lung tumours,[3],0
same,No. of mice examined at p.m. from 50th-70th week with other tumours,[3],0
same,No. of survivors at 50 weeks,[4],24
same,No. of survivors at 70 weeks,[4],22
same,No. of mice examined at p.m. at termination of experiment (70th-75th week) with liver tumours,[5],2
same,No. of mice examined at p.m. at termination of experiment (70th-75th week) with lung tumours,[5],1
same,No. of mice examined at p.m. at termination of experiment (70th-75th week) with multiple liver tumours,[5],0
same,No. of mice examined at p.m. at termination of experiment (70th-75th week) with multiple lung tumours,[5],0
same,No. of mice examined at p.m. at termination of experiment (70th-75th week) with other tumours,[5],0
same,No. of mice examined at p.m. from 50th-70th week with liver tumours,[5],0
same,No. of mice examined at p.m. from 50th-70th week with lung tumours,[5],0
same,No. of mice examined at p.m. from 50th-70th week with other tumours,[5],0
same,No. of survivors at 50 weeks,[6],21
same,No. of survivors at 70 weeks,[6],20
same,"incidence of the 2 kinds of tumour (liver, lung) compared with vehicle group","lowest level of dosage, Group F, 3 x 50 µg",not very different from that in Group G
same,No. of mice examined at p.m. at termination of experiment (70th-75th week) with liver tumours,[7],4
same,No. of mice examined at p.m. at termination of experiment (70th-75th week) with lung tumours,[7],5
same,No. of mice examined at p.m. at termination of experiment (70th-75th week) with multiple liver tumours,[7],1
same,No. of mice examined at p.m. at termination of experiment (70th-75th week) with multiple lung tumours,[7],1
same,No. of mice examined at p.m. at termination of experiment (70th-75th week) with other tumours,[7],0
same,No. of mice examined at p.m. from 50th-70th week with liver tumours,[7],0
same,No. of mice examined at p.m. from 50th-70th week with lung tumours,[7],0
same,No. of mice examined at p.m. from 50th-70th week with other tumours,[7],0
same,No. of survivors at 50 weeks,[8],16
same,No. of survivors at 70 weeks,[8],16
same,No. of mice examined at p.m. at termination of experiment (70th-75th week) with liver tumours,[9],12
same,No. of mice examined at p.m. at termination of experiment (70th-75th week) with lung tumours,[9],3
same,No. of mice examined at p.m. at termination of experiment (70th-75th week) with multiple liver tumours,[9],8
same,No. of mice examined at p.m. at termination of experiment (70th-75th week) with multiple lung tumours,[9],0
same,No. of mice examined at p.m. at termination of experiment (70th-75th week) with other tumours,[9],0
same,No. of mice examined at p.m. from 50th-70th week with liver tumours,[9],0
same,No. of mice examined at p.m. from 50th-70th week with lung tumours,[9],1
same,No. of mice examined at p.m. from 50th-70th week with other tumours,[9],0
same,No. of survivors at 50 weeks,[10],27
same,No. of survivors at 70 weeks,[10],26
same,No. of mice examined at p.m. at termination of experiment (70th-75th week) with liver tumours,[11],5
same,No. of mice examined at p.m. at termination of experiment (70th-75th week) with lung tumours,[11],2
same,No. of mice examined at p.m. at termination of experiment (70th-75th week) with multiple liver tumours,[11],4
same,No. of mice examined at p.m. at termination of experiment (70th-75th week) with multiple lung tumours,[11],1
same,No. of mice examined at p.m. at termination of experiment (70th-75th week) with other tumours,[11],2
same,No. of mice examined at p.m. from 50th-70th week with liver tumours,[11],2
same,No. of mice examined at p.m. from 50th-70th week with lung tumours,[11],0
same,No. of mice examined at p.m. from 50th-70th week with other tumours,[11],0
same,No. of survivors at 50 weeks,[12],21
same,No. of survivors at 70 weeks,[12],18
same,activity in increasing liver and lung tumour incidence compared with parent compound,parenteral administration during early neonatal life,less active than its parent compound
